Experiments:
[1] = Pharmacokinetics assay in rats, intragastric; format: in vivo; conditions: both sexes, rat, plasma, po, SD rats, 25 mg/kg, read-out: Area Under Curve AUC
Experimental: The pharmacokinetic behavior of the compounds of the present invention was studied and evaluated in rats. 8 healthy adult SD rats, male and female in half, were purchased from SINO-BRITSH SIPPR/BK LAB. ANIMAL LTD., CO, License number: SCXK (Shanghai) 2003-0002 The right amount of compounds were weighted and grinded with 0.5% Sodium Carboxymethyl cellulose uniformly, suspended them with 1% tween 80 to 2.5 mg/mL of suspension before use. […] 8 Healthy adult SD rats, male and female in half, were divided into 2 groups. After an overnight fast, the rats were administered intragastrically at a dose of 25.0 mg/kg. […] The plasma samples were stored at −20° C. until analysis. The rats were fed 2 hours after administration. 50 μL of rat plasmas taken at various time points after administration were mixed with 50 μL of standard series solution to obtain plasma concentration of 50.0, 100, 200, 500, 1000, 2000, 5000 ng/mL. 150 μL, methanol was added and then the mixture was mixed for 3 minute using a vortexer and centrifuged for 10 minutes at 13,500 rpm. 10 μL of the supernatant was analyzed by LC-MS/MS. The main pharmacokinetic parameters were calculated by DAS 2.0 software.

[2] = tested on: xenografts of Calu-3 human lung cancer; test: Therapeutic effects against xenografts of Calu-3 human lung cancer in nude mice; format: in vivo, BALB/cA-nude mice
Experimental: BALB/cA-nude mice, 6 to 7 weeks old, ♀, purchased from Slaccas Experimental Animal LTD., CO.
Nude mice were hypodermic inoculated Calu-3 human lung cancer cell. After tumors grew to 150-250 mm^3, mice were randomly divided into teams (d0).
The volume of tumors and the weigh of the mice were measured and recorded for 2-3 times per week.
The calculation formula of the volume of tumor (V) is: V=½×a×b^2, a: length of tumor, b: width of tumor.

[3] = high dose (200 mg/kg), nude mice, Calu-3 xenograft

Row | Structure (SMILES) | AUC [1] [ng·h/mL] | completely degraded fraction of the tumor [2, 3] | reduced fraction of the tumor volume [2, 3] | growth of Calu-3 human lung cancer ([2]; nude mice xenograft)
1 | CCOc1cc2ncc(C#N)c(Nc3ccc(OCc4ccccn4)c(Cl)c3)c2cc1NC(=O)/C=C/[C@H]1CCCN1C [Example 5, (E)-N-[4-[[3-Chloro-4-(2-pyridylmethoxy)phenyl]amino]-3-cyano-7-ethoxy-6-quinolyl]-3-[(2R)-1-methylpyrrolidin-2-yl]prop-2-enamide] | 52800 ± 23600 |  |  | 
2 | CCOc1cc2ncc(C#N)c(Nc3ccc(OCc4ccccn4)c(Cl)c3)c2cc1NC(=O)/C=C/[C@@H]1CCCN1C [Example 1, (E)-N-[4-[[3-Chloro-4-(2-pyridylmethoxy)phenyl]amino]-3-cyano-7-ethoxy-6-quinolyl]-3-[(2S)-1-methylpyrrolidin-2-yl]prop-2-enamide] | 52600 ± 39000 | ⅙ | ⅙ | markedly inhibited

— US9358227B2, “Pharmaceutical uses of 6-amino quinazoline or 3-cyano quinoline derivatives” (Jiangsu Hengrui Medicine Co., Ltd., priority 2009, dated 2016)
